Results on 9 compounds are retold here after patent US20240150360A1 (THE REGENTS OF THE UNIVERSITY OF MICHIGAN, priority 2021, published 2024).

Experiment [1] has as its target T1, P300 (Homo sapiens, UniProt Q09472).
T1 construct: endogenous in cells; host or cells: 22Rv1 (ATCC CRL-2505) human prostate cancer cells
The experiment is described as follows: P300 degradation in 22Rv1 cells (5 h). The class given is cell-based. As to conditions: 22Rv1 cells, 5 h; for Dmax: read-out: P300 Degradation (22Rv1, 5 h) DCmax. From the text: (§1) Biological Assays. […] Cells with 3-8 passages after purchase were used in experiments.

The test system of experiment [2] is HL60. The experiment in a line: Cell growth inhibition in HL60. The format is cell-based. Particulars: Homo sapiens, HL-60, HL60 cells; read-out: Cell Growth Inhibition (IC50) HL60.
The subject of experiment [3] is 22Rv1 cells. The experiment is described as follows: Cell growth inhibition assay (CellTiter-Glo) in 22Rv1. As to conditions: Homo sapiens, 22Rv1, 96 h, 22Rv1 cells, 96 h incubation; read-out: Cell Growth Inhibition (IC50) 22Rv1. The class given is cell-based, human. In outline:
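22Rv1 prostate cancer cells (passages 3-8, DMEM with 10% FBS) were seeded at 4000 cells/well with compound, 3-fold dilutions from 10 μM final. After 96 h at 37° C and 5% CO2, growth was read by CellTiter-Glo 2.0 luminescence.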
In general terms: ATP-based viability assays read luminescence as a measure of living cells.

Experiment [4] concerns the target T2, CBP (Homo sapiens, UniProt Q92793).
T2 construct: endogenous in cells; host or cells: 22Rv1 (ATCC CRL-2505) human prostate cancer cells
The experiment is described as follows: CBP degradation in 22Rv1 cells (5 h). The class given is cell-based. Particulars: 22Rv1 cells, 5 h; for Dmax: 22Rv1, 5 h, read-out: CBP Degradation (22Rv1, 5 h) DCmax.
Text: as §1

T1 sequence (Q09472 whole entry): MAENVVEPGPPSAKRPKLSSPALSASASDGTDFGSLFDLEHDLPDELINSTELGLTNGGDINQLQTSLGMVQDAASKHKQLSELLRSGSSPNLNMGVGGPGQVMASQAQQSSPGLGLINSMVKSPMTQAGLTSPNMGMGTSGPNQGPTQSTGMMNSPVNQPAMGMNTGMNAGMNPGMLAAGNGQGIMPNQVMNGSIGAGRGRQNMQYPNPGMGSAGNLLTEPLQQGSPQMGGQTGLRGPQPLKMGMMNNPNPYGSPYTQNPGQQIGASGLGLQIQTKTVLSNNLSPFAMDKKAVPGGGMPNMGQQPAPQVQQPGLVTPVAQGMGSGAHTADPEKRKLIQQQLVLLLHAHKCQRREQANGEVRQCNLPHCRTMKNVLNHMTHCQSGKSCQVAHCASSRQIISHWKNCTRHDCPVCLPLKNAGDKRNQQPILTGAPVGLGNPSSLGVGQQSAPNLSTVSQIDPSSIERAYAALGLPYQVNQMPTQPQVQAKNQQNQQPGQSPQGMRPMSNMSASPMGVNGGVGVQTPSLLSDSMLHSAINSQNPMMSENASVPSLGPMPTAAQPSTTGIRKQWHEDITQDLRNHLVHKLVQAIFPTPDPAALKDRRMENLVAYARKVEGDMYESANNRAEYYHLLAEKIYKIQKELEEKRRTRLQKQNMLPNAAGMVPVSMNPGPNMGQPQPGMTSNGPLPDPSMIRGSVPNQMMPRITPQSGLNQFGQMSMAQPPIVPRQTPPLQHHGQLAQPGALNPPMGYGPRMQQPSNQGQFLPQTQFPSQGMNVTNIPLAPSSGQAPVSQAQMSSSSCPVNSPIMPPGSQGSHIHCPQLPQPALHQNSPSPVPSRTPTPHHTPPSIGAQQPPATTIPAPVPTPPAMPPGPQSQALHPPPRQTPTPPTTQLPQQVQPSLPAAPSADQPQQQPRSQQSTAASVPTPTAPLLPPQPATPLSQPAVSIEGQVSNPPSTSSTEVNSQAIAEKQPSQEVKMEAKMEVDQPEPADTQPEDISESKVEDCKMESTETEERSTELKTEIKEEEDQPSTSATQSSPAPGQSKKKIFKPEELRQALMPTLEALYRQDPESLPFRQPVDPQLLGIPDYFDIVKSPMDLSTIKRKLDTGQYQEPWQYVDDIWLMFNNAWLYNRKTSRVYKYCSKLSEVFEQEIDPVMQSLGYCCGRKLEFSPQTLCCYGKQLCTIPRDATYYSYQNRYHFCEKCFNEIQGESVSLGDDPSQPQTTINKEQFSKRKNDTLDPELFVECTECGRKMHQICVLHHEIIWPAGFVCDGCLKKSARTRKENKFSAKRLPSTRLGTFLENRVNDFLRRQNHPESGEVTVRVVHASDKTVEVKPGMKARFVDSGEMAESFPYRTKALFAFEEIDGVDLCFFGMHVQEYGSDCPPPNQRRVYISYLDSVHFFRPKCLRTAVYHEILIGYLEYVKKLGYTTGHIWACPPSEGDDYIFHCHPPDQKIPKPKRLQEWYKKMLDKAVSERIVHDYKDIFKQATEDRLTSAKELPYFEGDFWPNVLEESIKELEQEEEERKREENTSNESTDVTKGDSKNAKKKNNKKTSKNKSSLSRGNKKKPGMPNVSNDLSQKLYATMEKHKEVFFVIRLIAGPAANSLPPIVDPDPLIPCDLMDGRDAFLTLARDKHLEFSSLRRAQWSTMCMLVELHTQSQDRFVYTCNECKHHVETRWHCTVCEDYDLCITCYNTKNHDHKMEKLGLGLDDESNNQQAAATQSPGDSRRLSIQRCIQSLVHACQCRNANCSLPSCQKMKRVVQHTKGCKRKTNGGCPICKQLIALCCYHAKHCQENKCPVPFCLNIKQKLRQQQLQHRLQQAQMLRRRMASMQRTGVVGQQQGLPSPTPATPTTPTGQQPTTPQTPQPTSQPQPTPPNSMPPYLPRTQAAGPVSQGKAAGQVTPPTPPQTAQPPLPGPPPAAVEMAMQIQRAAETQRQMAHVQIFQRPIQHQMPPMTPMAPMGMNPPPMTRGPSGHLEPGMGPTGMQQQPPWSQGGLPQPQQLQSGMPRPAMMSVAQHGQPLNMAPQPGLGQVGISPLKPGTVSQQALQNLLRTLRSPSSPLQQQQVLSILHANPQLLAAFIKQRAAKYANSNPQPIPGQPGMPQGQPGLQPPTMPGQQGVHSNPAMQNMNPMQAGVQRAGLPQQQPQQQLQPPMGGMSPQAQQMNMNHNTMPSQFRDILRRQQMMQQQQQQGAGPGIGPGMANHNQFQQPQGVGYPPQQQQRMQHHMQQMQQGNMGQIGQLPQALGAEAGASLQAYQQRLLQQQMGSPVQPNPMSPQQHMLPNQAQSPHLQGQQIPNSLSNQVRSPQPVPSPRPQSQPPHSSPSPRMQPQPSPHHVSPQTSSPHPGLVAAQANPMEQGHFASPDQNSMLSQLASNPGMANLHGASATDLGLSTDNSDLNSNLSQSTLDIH
T2 sequence (Q92793 whole entry): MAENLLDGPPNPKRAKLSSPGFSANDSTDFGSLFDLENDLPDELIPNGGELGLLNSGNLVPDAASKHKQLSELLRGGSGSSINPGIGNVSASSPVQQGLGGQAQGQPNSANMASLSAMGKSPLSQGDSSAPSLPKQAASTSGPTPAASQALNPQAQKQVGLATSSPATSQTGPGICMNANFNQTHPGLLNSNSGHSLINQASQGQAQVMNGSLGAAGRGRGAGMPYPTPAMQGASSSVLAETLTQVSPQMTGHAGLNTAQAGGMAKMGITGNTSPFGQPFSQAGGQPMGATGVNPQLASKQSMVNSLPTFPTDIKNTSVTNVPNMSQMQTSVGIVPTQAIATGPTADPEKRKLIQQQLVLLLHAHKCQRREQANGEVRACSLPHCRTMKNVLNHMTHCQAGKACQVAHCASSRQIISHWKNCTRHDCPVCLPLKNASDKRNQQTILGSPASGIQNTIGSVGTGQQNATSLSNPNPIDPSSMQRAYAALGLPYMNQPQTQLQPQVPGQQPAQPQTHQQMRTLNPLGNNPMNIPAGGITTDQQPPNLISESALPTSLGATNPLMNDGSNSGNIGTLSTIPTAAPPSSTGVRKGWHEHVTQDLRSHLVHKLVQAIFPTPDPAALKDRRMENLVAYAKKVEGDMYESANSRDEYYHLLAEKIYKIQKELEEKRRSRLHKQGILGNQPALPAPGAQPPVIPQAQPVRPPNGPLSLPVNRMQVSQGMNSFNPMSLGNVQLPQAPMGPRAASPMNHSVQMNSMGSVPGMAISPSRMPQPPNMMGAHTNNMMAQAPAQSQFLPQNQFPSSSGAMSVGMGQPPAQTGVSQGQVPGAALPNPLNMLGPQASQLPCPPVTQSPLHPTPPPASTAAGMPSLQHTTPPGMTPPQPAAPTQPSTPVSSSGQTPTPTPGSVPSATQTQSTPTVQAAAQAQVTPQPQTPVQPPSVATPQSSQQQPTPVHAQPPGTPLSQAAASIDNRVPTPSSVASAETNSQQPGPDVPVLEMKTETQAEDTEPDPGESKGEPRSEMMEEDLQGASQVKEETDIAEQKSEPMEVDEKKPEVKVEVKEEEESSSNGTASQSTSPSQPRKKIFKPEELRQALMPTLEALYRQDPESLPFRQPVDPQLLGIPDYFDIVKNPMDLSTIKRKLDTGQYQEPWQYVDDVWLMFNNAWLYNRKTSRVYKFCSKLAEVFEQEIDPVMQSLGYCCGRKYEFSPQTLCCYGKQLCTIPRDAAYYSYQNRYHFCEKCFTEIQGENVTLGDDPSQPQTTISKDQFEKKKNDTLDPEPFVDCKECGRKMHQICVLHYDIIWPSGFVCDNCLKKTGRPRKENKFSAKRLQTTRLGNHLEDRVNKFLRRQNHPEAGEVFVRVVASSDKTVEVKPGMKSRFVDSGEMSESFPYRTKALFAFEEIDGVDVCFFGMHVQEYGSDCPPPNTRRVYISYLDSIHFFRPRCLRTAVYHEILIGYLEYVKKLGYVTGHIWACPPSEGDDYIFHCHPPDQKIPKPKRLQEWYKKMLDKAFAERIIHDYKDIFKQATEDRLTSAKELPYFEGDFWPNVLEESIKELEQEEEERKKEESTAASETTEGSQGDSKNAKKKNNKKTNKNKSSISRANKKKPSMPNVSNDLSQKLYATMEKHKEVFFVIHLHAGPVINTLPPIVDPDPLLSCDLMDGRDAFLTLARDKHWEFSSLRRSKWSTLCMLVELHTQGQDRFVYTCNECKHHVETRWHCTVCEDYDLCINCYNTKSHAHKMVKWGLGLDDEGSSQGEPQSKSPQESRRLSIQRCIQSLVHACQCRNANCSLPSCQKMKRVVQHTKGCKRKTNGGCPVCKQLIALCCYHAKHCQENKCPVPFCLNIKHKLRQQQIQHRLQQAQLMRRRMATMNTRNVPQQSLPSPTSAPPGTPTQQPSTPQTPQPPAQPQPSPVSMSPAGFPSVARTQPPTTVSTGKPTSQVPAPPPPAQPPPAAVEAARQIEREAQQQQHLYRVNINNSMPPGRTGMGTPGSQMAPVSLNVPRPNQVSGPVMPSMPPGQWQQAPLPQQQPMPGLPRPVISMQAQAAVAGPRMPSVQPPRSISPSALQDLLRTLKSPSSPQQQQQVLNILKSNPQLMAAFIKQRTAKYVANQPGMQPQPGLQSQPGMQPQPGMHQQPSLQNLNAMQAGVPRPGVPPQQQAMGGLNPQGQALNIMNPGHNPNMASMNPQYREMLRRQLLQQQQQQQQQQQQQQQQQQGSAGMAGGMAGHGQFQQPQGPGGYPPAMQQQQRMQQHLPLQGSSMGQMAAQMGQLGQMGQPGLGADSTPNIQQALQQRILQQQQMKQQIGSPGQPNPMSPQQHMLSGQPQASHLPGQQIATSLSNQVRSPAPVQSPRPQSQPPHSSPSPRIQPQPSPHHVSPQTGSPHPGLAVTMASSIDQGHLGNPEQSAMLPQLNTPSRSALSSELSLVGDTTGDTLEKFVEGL

Turning to `Cn1cc(-c2cc3c(cc2C(F)F)N(c2nn(C4CCN(C(=O)CN5Cc6cc7c(cc6C5)C(=O)N(C5CCC(=O)NC5=O)C7=O)CC4)c4c2CNCC4)CCC3)cn1` (stereo not drawn) [CP-057, 6-(2-(4-(3-(7-(difluoromethyl)-6-(1-methyl-1H-pyrazol-4-yl)-3,4-dihydroquinolin-1(2H)-yl)-4,5,6,7-tetrahydro-1H-pyrazolo[4,3-c]pyridin-1-yl)piperidin-1-yl)-2-oxoethyl)-2-(2,6-dioxopiperidin-3-yl)-6,7-dihydropyrrolo[3,4-f]isoindole-1,3(2H,5H)-dione], the DC50 in experiment [1] and in experiment [4] was over 1000 nM throughout. Moreover, the Dmax in experiment [1] and in experiment [4] was under 50% in each case. The concentration for half-maximal inhibition (IC50) in experiment [2] and in experiment [3] was over 10 µM throughout.
Turning to `Cn1cc(-c2cc3c(cc2C(F)F)N(c2nn(C4CCN(C(=O)CN5Cc6cc7c(cc6C5)C(=O)N(C5CCC(=O)NC5=O)C7=O)CC4)c4c2CN(CC(F)F)CC4)CCC3)cn1` (stereo not drawn) [CP-058, 6-(2-(4-(5-(2,2-difluoroethyl)-3-(7-(difluoromethyl)-6-(1-methyl-1H-pyrazol-4-yl)-3,4-dihydroquinolin-1(2H)-yl)-4,5,6,7-tetrahydro-1H-pyrazolo[4,3-c]pyridin-1-yl)piperidin-1-yl)-2-oxoethyl)-2-(2,6-dioxopiperidin-3-yl)-6,7-dihydropyrrolo[3,4-f]isoindole-1,3(2H,5H)-dione], the 50% degradation concentration (DC50) in experiment [1] and in experiment [4] was over 1000 nM in each case. The Dmax in experiment [1] and in experiment [4] was under 50% each time. For the same compound, the IC50 in experiment [2] and in experiment [3] was over 10 µM in each case.
Regarding `Cn1cc(-c2cc3c(cc2C(F)F)N(c2nn(C4CCN(C(=O)CN5Cc6cc7c(cc6C5)C(=O)N(C5CCC(=O)NC5=O)C7=O)CC4)c4c2CN(CC(C)(F)F)CC4)CCC3)cn1` (stereo not drawn) [CP-059, 6-(2-(4-(3-(7-(difluoromethyl)-6-(1-methyl-1H-pyrazol-4-yl)-3,4-dihydroquinolin-1(2H)-yl)-5-(2,2-difluoropropyl)-4,5,6,7-tetrahydro-1H-pyrazolo[4,3-c]pyridin-1-yl)piperidin-1-yl)-2-oxoethyl)-2-(2,6-dioxopiperidin-3-yl)-6,7-dihydropyrrolo[3,4-f]isoindole-1,3(2H,5H)-dione], the 50% degradation concentration (DC50) in experiment [1] and in experiment [4] was over 1000 nM throughout. For the same compound, the Dmax in experiment [1] and in experiment [4] was under 50% each time. For the same compound, the results for the IC50 in experiment [2] and in experiment [3] were under 10 µM and over 10 µM, respectively.
`Cc1noc(C)c1-c1ccc2c(c1)nc([C@@H]1CCCC(=O)N1c1ccc(F)c(F)c1)n2C1CCN(C(=O)CN2Cc3cc4c(cc3C2)C(=O)N(C2CCC(=O)NC2=O)C4=O)CC1` (stereo partly drawn) [CP-061, 6-(2-(4-(2-((S)-1-(3,4-difluroophenyl)-6-oxopiperidin-2-yl)-5-(3,5-dimethylisoxazol-4-yl)-1H-benzo[d]imidazol-1-yl)piperidin-1-yl)-2-oxoethyl)-2-(2,6-dioxopiperidin-3-yl)-6,7-dihydropyrrolo[3,4-f]isoindole-1,3(2H,5H)-dione]: the half-maximal degradation concentration (DC50) is over 1000 nM in experiment [1] and under 100 nM in experiment [4]. In addition, the Dmax in experiment [1] was under 50%; in experiment [4] it was over 50%. Moreover, the half-inhibitory concentration (IC50) in experiment [2] and in experiment [3] was over 10 µM in each case.
Consider `Cc1noc(C)c1-c1ccc2c(c1)nc([C@@H]1CCCC(=O)N1c1ccc(F)c(F)c1)n2C1CCN(C(=O)CN2Cc3cc4c(cc3C2)C(=O)N(C2CCC(=O)NC2=O)C4)CC1` (stereo partly drawn) [CP-062, 3-(6-(2-(4-(2-((S)-1-(3,4-difluorophenyl)-6-oxopiperidin-2-yl)-5-(3,5-dimethylisoxazol-4-yl)-1H-benzo[d]imidazol-1-yl)piperidin-1-yl)-2-oxoethyl)-1-oxo-3,5,6,7-tetrahydropyrrolo[3,4-f]isoindol-2(1H)-yl)piperidine-2,6-dione], for which the DC50 is under 100 nM in experiment [1] and under 1000 nM in experiment [4]. For the same compound, the Dmax in experiment [1] is over 50%; in experiment [4], under 50%. For the same compound, the IC50 in experiment [2] and in experiment [3] was over 10 µM throughout.
In the case of `Cc1noc(C)c1-c1ccc2c(c1)nc([C@@H]1CCCC(=O)N1c1ccc(F)c(F)c1)n2C1CCN(C(=O)CN2CCc3cc4c(cc3C2)C(=O)N(C2CCC(=O)NC2=O)C4=O)CC1` (stereo partly drawn) [CP-063, 6-(2-(4-(2-((S)-1-(3,4-difluorophenyl)-6-oxopiperidin-2-yl)-5-(3,5-dimethylisoxazol-4-yl)-1H-benzo[d]imidazol-1-yl)piperidin-1-yl)-2-oxoethyl)-2-(2,6-dioxopiperidin-3-yl)-5,6,7,8-tetrahydro-1H-pyrrolo[3,4-g]isoquinoline-1,3(2H)-dione], the DC50 in experiment [1] and in experiment [4] was over 1000 nM in each case. In addition, the Dmax in experiment [1] and in experiment [4] was under 50% throughout. Moreover, the IC50 in experiment [2] and in experiment [3] was over 10 µM in each case.
Take `Cc1noc(C)c1-c1ccc2c(c1)nc([C@@H]1CCCC(=O)N1c1ccc(F)c(F)c1)n2C1CCN(C(=O)CN2CCc3cc4c(cc3CC2)C(=O)N(C2CCC(=O)NC2=O)C4=O)CC1` (stereo partly drawn) [CP-064, 7-(2-(4-(2-((S)-1-(3,4-difluorophenyl)-6-oxopiperidin-2-yl)-5-(3,5-dimethylisoxazol-4-yl)-1H-benzo[d]imidazol-1-yl)piperidin-1-yl)-2-oxoethyl)-2-(2,6-dioxopiperidin-3-yl)-6,7,8,9-tetrahydroazepino[4,5-f]isoindole-1,3(2H,5H)-dione]: the half-maximal degradation concentration (DC50) in experiment [1] and in experiment [4] was over 1000 nM throughout. The Dmax in experiment [1] and in experiment [4] was under 50% each time. In addition, the concentration for half-maximal inhibition (IC50) in experiment [2] and in experiment [3] was over 10 µM each time.
`Cc1noc(C)c1-c1ccc2c(c1)nc([C@@H]1CCCC(=O)N1c1ccc(F)c(F)c1)n2C1CCN(C(=O)CCN2Cc3cc4c(cc3C2)C(=O)N(C2CCC(=O)NC2=O)C4=O)CC1` (stereo partly drawn) [CP-065, 6-(3-(4-(2-((S)-1-(3,4-difluorophenyl)-6-oxopiperidin-2-yl)-5-(3,5-dimethylisoxazol-4-yl)-1H-benzo[d]imidazol-1-yl)piperidin-1-yl)-3-oxopropyl)-2-(2,6-dioxopiperidin-3-yl)-6,7-dihydropyrrolo[3,4-f]isoindole-1,3(2H,5H)-dione]: the 50% degradation concentration (DC50) in experiment [1] and in experiment [4] was over 1000 nM in each case. Also, the Dmax in experiment [1] and in experiment [4] was under 50% throughout. For the same compound, the concentration for half-maximal inhibition (IC50) in experiment [2] and in experiment [3] was over 10 µM each time.
In the case of `Cc1noc(C)c1-c1ccc2c(c1)nc([C@@H]1CCCC(=O)N1c1ccc(F)c(F)c1)n2C1CCN(C(=O)CCCN2Cc3cc4c(cc3C2)C(=O)N(C2CCC(=O)NC2=O)C4=O)CC1` (stereo partly drawn) [CP-066, 6-(4-(4-(2-((S)-1-(3,4-difluorophenyl)-6-oxopiperidin-2-yl)-5-(3,5-dimethylisoxazol-4-yl)-1H-benzo[d]imidazol-1-yl)piperidin-1-yl)-4-oxobutyl)-2-(2,6-dioxopiperidin-3-yl)-6,7-dihydropyrrolo[3,4-f]isoindole-1,3(2H,5H)-dione], the DC50 in experiment [1] and in experiment [4] was over 1000 nM each time. Moreover, the Dmax in experiment [1] and in experiment [4] was under 50% throughout. The IC50 in experiment [2] and in experiment [3] was over 10 µM in each case.

As a reminder, the DC50 is the concentration giving 50% degradation. High values mean degradation only at high concentration, low ones degradation at low concentration. For orientation: IC50 means the point on the concentration scale where inhibition reaches its midpoint.
